Laboratory results taken from ChEMBL document CHEMBL3991601, “The target landscape of clinical kinase drugs” (Science, 2017).
The source made the active and inactive calls. Rule as the data show it, for most assays here: actives have a measured Kd and inactives only a lower limit.

Legend:
[1] = target: T1, Structural maintenance of chromosomes protein 1A (Homo sapiens, UniProt Q14683)
T1 sequence (Q14683 whole entry): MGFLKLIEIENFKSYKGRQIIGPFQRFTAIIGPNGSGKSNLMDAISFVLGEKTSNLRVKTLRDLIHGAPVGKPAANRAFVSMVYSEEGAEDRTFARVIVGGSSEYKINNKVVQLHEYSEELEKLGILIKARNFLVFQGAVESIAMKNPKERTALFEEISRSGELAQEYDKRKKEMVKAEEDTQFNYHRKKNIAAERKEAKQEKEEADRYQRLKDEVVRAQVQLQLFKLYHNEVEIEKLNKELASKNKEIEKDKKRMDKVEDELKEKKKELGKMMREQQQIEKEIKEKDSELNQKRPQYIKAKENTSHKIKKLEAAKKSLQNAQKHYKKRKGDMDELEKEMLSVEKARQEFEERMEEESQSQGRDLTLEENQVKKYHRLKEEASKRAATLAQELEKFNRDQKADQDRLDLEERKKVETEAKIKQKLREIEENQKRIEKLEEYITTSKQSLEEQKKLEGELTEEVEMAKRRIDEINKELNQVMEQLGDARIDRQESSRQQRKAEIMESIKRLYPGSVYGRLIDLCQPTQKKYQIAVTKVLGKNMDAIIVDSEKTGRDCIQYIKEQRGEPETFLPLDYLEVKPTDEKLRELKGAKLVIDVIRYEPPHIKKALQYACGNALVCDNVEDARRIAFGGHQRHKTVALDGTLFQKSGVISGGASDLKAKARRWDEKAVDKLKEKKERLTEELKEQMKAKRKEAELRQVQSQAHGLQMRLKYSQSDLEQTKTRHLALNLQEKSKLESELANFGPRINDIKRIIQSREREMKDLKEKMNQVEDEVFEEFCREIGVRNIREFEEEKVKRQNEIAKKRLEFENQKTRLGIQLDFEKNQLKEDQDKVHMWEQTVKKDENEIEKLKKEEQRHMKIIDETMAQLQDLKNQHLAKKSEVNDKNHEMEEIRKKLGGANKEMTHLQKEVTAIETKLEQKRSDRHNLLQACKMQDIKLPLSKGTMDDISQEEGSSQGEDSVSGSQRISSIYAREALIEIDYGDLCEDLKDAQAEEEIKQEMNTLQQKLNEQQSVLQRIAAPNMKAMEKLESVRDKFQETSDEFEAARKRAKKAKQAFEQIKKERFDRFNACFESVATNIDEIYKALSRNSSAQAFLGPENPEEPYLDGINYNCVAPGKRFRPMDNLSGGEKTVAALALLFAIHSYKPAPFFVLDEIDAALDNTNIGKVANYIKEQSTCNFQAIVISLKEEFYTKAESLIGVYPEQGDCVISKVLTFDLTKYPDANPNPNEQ

[2] = target: T2, Calcium/calmodulin-dependent protein kinase type IV (Homo sapiens, UniProt Q16566)
T2 sequence (Q16566 whole entry): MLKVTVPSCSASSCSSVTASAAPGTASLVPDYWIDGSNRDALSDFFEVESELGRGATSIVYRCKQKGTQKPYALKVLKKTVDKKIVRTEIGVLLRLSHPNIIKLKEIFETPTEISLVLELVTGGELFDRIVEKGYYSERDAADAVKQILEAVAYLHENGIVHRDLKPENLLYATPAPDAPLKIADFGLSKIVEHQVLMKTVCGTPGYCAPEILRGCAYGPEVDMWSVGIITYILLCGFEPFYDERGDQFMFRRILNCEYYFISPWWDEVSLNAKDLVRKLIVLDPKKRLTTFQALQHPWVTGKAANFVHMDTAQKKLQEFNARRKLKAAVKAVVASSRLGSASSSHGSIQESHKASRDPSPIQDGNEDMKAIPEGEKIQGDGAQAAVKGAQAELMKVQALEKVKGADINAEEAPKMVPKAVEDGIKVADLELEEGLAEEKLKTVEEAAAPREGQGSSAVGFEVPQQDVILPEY

Ephrin type-B receptor 2 = target: T3, Ephrin type-B receptor 2 (Homo sapiens, UniProt P29323)
T3 sequence (P29323 whole entry): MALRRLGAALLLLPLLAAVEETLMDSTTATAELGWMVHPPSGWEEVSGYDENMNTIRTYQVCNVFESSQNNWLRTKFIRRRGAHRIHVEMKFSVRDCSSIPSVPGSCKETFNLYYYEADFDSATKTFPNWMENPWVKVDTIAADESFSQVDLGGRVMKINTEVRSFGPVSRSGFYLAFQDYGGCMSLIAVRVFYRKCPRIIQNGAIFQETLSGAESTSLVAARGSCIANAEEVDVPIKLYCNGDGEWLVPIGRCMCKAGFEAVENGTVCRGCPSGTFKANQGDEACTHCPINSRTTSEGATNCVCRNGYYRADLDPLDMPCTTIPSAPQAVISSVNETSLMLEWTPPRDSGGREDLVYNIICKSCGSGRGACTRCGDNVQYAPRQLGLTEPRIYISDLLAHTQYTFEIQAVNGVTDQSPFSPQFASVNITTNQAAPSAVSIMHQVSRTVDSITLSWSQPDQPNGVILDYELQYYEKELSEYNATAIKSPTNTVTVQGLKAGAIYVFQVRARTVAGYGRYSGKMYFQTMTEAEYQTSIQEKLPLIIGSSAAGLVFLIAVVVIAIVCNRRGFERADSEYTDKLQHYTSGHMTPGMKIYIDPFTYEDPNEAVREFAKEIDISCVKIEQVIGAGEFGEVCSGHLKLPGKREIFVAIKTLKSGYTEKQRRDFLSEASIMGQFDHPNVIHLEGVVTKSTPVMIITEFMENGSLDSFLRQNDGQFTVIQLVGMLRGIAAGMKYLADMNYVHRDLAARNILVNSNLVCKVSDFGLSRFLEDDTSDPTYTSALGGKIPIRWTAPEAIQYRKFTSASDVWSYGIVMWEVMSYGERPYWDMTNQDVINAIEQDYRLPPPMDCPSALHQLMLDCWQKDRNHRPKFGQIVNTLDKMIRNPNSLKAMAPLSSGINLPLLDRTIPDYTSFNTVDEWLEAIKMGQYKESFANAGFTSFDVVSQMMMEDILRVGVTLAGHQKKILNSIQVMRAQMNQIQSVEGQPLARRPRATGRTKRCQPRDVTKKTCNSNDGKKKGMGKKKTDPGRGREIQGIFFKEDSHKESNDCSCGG
Also: in the data inactive means no Kd found up to 30 µM.

SMILES	Kd [1]	Kd [2]	Kd (Ephrin type-B receptor 2)
Cc1cccc(-c2nn3c(c2-c2ccnc4ccc(C(N)=O)cc24)CCC3)n1 [GALUNISERTIB]	> 30 µM (inactive)	> 30 µM (inactive)	> 30 µM (inactive)
CCn1cc(-c2ccnc3[nH]c(-c4cccc(CN(C)C)c4)cc23)c(-c2ccc(NC(=O)N(C)C)cc2)n1 [GSK-1070916]	> 30 µM (inactive)	> 30 µM (inactive)	> 30 µM (inactive)
COc1ccc(S(=O)(=O)N(C(C)=O)c2ccccc2/C=C/c2cc[n+]([O-])cc2)cc1 [HMN-214]	> 30 µM (inactive)	> 30 µM (inactive)	> 30 µM (inactive)
O=C(Nc1cc(C(F)(F)F)cc(C(F)(F)F)c1)c1cc(Cl)ccc1O [IMD-0354]	> 30 µM (inactive)	> 30 µM (inactive)	> 30 µM (inactive)
CNC(=O)c1cccc2cc(Oc3ccnc4cc(OCC5(N)CC5)c(OC)cc34)ccc12 [LUCITANIB]	> 30 µM (inactive)	> 30 µM (inactive)	> 30 µM (inactive)
CNC(=O)c1nn(C)c2c1C(C)(C)Cc1cnc(Nc3ccc(N4CCN(C)CC4)cc3)nc1-2 [MILCICLIB]	> 30 µM (inactive)	> 30 µM (inactive)	0.767 µM (active)
NC1(c2ccc(-c3nc4ccn5c(=O)[nH]nc5c4cc3-c3ccccc3)cc2)CCC1 [MK-2206]	> 30 µM (inactive)	> 30 µM (inactive)	> 30 µM (inactive)
CN(C[C@@H]1COCCO1)S(=O)(=O)Nc1ccc2ccc3ncc(-c4cnn(C)c4)cc3c(=O)c2c1 [MK-2461]	> 30 µM (inactive)	> 30 µM (inactive)	> 30 µM (inactive)
Cn1cc(-c2cnc3ccc4ccc(CS(=O)(=O)NCc5ccccn5)cc4c(=O)c3c2)cn1 [MK-8033]	> 30 µM (inactive)	> 30 µM (inactive)	> 30 µM (inactive)
FC(F)(F)c1ccc(/C=C/c2nc(COc3ccc(CCCCn4ccnn4)cc3)co2)cc1 [MUBRITINIB]	> 30 µM (inactive)	> 30 µM (inactive)	> 30 µM (inactive)
COc1ncc(-c2ccc3nccc(-c4ccnnc4)c3c2)cc1NS(=O)(=O)c1ccc(F)cc1F [OMIPALISIB]	> 30 µM (inactive)	> 30 µM (inactive)	> 30 µM (inactive)
Cc1[nH]c(/C=C2\C(=O)Nc3ccccc32)c(C)c1CCC(=O)O [ORANTINIB]	> 30 µM (inactive)	> 30 µM (inactive)	> 30 µM (inactive)
NC(=O)c1c(OCc2c(F)cc(Br)cc2F)nsc1NC(=O)NCCCCN1CCCC1 [OSI-632]	> 30 µM (inactive)	> 30 µM (inactive)	> 30 µM (inactive)
CCOc1cc2ncc(C#N)c(Nc3ccc(F)c(Cl)c3)c2cc1NC(=O)/C=C/CN(C)C [PELITINIB]	> 30 µM (inactive)	> 30 µM (inactive)	> 30 µM (inactive)
CCCCCCCCCCCCCCCCCCOP(=O)([O-])OC1CC[N+](C)(C)CC1 [PERIFOSINE]	> 30 µM (inactive)	> 30 µM (inactive)	> 30 µM (inactive)
Cc1nc(Nc2n[nH]c3c2CN(C(=O)N[C@H](CN(C)C)c2ccccc2)C3(C)C)c2sccc2n1 [PF-03758309]	> 30 µM (inactive)	0.408 µM (active)	> 30 µM (inactive)
CC(=O)NCC(=O)N1[C@@H]2CC[C@H]1c1ccc(Nc3ncc(C(F)(F)F)c(NC4CCC4)n3)cc12 [PF-03814735]	> 30 µM (inactive)	> 30 µM (inactive)	> 30 µM (inactive)
Cc1cnc(NC(=O)Nc2cc(Br)c(C)cc2OC[C@@H]2CNCCO2)cn1 [RABUSERTIB]	> 30 µM (inactive)	> 30 µM (inactive)	> 30 µM (inactive)
CNC(=O)c1cc(Oc2ccc(NC(=O)Nc3cc(C(C)(C)C)nn3-c3ccc4ncccc4c3)c(F)c2)ccn1 [REBASTINIB]	> 30 µM (inactive)	> 30 µM (inactive)	> 30 µM (inactive)
CO[C@H]1C[C@@H]2CC[C@@H](C)[C@@](O)(O2)C(=O)C(=O)N2CCCC[C@H]2C(=O)O[C@H]([C@H](C)C[C@@H]2CC[C@@H](OP(C)(C)=O)[C@H](OC)C2)CC(=O)[C@H](C)/C=C(\C)[C@@H](O)[C@@H](OC)C(=O)[C@H](C)C[C@H](C)/C=C/C=C/C=C/1C [RIDAFOROLIMUS]	> 30 µM (inactive)	> 30 µM (inactive)	> 30 µM (inactive)
N#CC1(c2ccc(NC(=O)c3cccnc3NCc3ccncc3)cc2)CCCC1 [RIVOCERANIB]	> 30 µM (inactive)	> 30 µM (inactive)	> 30 µM (inactive)
O=c1[nH]ccc2cc(OC3CCNCC3)ccc12 [SAR-407899 FREE BASE]	> 30 µM (inactive)	> 30 µM (inactive)	> 30 µM (inactive)
CN1CCN(CCOc2cc(OC3CCOCC3)c3c(Nc4c(Cl)ccc5c4OCO5)ncnc3c2)CC1 [SARACATINIB]	> 30 µM (inactive)	> 30 µM (inactive)	9.42 µM (active)
CO[C@H]1C[C@@H]2CC[C@@H](C)[C@@](O)(O2)C(=O)C(=O)N2CCCC[C@H]2C(=O)O[C@H]([C@H](C)C[C@@H]2CC[C@@H](O)[C@H](OC)C2)CC(=O)[C@H](C)/C=C(\C)[C@@H](O)[C@@H](OC)C(=O)[C@H](C)C[C@H](C)/C=C/C=C/C=C/1C [SIROLIMUS]	> 30 µM (inactive)	> 30 µM (inactive)	> 30 µM (inactive)
CCS(=O)(=O)c1cccc(-c2cc(C(=O)NC3CCN(C)CC3)c(C)c3[nH]c4ncc(C)cc4c23)c1 [TAK-901]	> 30 µM (inactive)	> 30 µM (inactive)	0.669 µM (active)
CO[C@H]1C[C@@H]2CC[C@@H](C)[C@@](O)(O2)C(=O)C(=O)N2CCCC[C@H]2C(=O)O[C@H]([C@H](C)C[C@@H]2CC[C@@H](OC(=O)C(C)(CO)CO)[C@H](OC)C2)CC(=O)[C@H](C)/C=C(\C)[C@@H](O)[C@@H](OC)C(=O)[C@H](C)C[C@H](C)/C=C/C=C/C=C/1C [TEMSIROLIMUS]	> 30 µM (inactive)	> 30 µM (inactive)	> 30 µM (inactive)
COc1cc2c(Nc3ccc(Cl)c(Cl)c3F)ncnc2cc1OC[C@@H]1C[C@@H]2CN(C)C[C@@H]2C1 [TESEVATINIB]	> 30 µM (inactive)	> 30 µM (inactive)	0.448 µM (active)
